Results reported in article PMC10222203 (Pharmaceutics, 2023).
Values joined by “and” are separate entries in the source; they are usually repeats but may differ in a detail not shown here. Equal values may be shown once. Read-outs that look alike come from different tables or passages of the source.

Columns and labels:
brain slices = test system: brain slices
Protocol: (§1) The brain slice assay was performed according to previously published protocols. Three animals per study group were investigated. All glassware used in the brain slice experiments was silanized using dimethyldichlorosilane in heptane to avoid non-specific binding of the cyclic peptides to glass. In short, the silanization solution was added to the glassware and left there for one hour, after which the glassware was rinsed with methanol and then placed in a heating cabinet to cure. Slicing was performed with a Leica VT1200 microtome slicer (Leica Microsystems, Wetzlar, Germany). […] At the end of the incubation, two 200 µL samples of aECF were taken and mixed with blank brain homogenate (1:4, w:v) for assessment of unbound buffer concentration, Cbuffer (nanomoles per mL). Thereafter, the brain slices were individually sampled, carefully dried on filter paper, weighed, and homogenized in aECF (1:9, w:v) to determine the total amount of drug in the slice, Aslice (nanomoles per g brain). The density of brain tissue was assumed to be 1 g/mL. The key assumption of the assay is achievement of equilibrium during 5 h incubation, with Cbuffer being equal and representing unbound brain slice interstitial concentration. Samples of aECF (200 µL) were also taken from the scintillation vial without brain slices at the start and at the end of the incubation to determine the relative recovery and thermostability of the peptides. The unbound volume of distribution in brain, Vu,brain (mL/g brain), was calculated using Equation (3). (3) Vu,brain =Aslice−Vi×Cbuffer/Cbuffer(1−Vi) where Vi is the volume of buffer film that coats the slice and equals to 0.094 mL/g brain [39].
(§2) To study the potential mechanism of intracellular distribution of the peptides, several exploratory experiments were performed (Figure 2a). […] In addition, the role of endocytosis and pH partitioning-driven distribution was investigated. The slices were pre-incubated for 30 min with the blockers before the addition of the peptides. Dynasore was used as an inhibitor of dynamin-dependent endocytosis, which is involved in both clathrin and caveolin vesicle formation (Figure 3a). […] Due to high cytotoxicity, the concentration of […] was chosen based on previous studies.
(§3) The unbound intracellular-to-extracellular concentration ratio, Kp,uu,cell, was calculated according to Equation (14) by combining the brain slice derived, Vu,brain, with the measurement of brain tissue binding, fu,brain, from the tissue homogenate study. This allows elucidation of whether the uptake into the brain cells is driven mainly by passive processes and intracellular binding and/or partitioning, such as lysosomal trapping, or by active uptake into the cells. (14) Kp,uu,cell=fu,brain×Vu,brain

[1] = rat, Kp,uu,cell
Protocol: as §1, §2, §3

in vivo = conditions: rat; for Half-life, t½ / half-life: 10 min intravenous infusion; for Half-life, t½ / AUC(0-inf) / Vd / clearance / half-life: 0.5 mg/kg; for AUC(0-inf) / Vd / clearance / half-life: iv; for half-life: t½
Protocol: Since previous pharmacokinetic data were extremely sparse, a pilot study was performed in rats (n = 2), and simulations were performed in Berkeley Madonna (version 8.3.18 for Windows, Berkeley, CA, USA), defining suitable dose and sampling intervals from the parameters obtained in the pilot study. The surgical implantation of catheters made of polyethylene (PE50) in the femoral vein and artery for dosing of peptide and sampling of blood, respectively, was performed the day before experiments under isoflurane anaesthesia. The animals were then housed in a CMA120 system (CMA, Solna, Sweden) for freely moving animals with ad libitum access to food and water. […] All samples were added to heparinized low-binding Eppendorf tubes. The blood samples were centrifuged, and plasma was transferred to new Eppendorf tubes and immediately frozen at −20 °C. After bioanalysis, the area under the plasma concentration–time curve (AUC) was determined by the trapezoidal rule with extrapolation to time infinity followed by calculation of systemic clearance (CL), apparent volume of distribution (Vd), and half-life (t½).

plasma proteins = conditions: undiluted rat plasma, 1 µM, equilibrium dialysis 6 h 37 °C
Protocol: Peptide binding to plasma proteins, brain tissue homogenate, and lung tissue homogenate as well as to neuronal and astrocyte cell culture homogenates was investigated using equilibrium dialysis [47]. Undiluted plasma and brain from three peptide-naïve rats were used in the experiment. The brain homogenate was prepared by homogenizing 1 part brain with 4 parts of phosphate-buffered saline (PBS, pH 7.4). […] Semi-permeable membranes with a molecular weight cut-off of 12–14 kDa were used and placed in an HTD96b apparatus (HTDialysis, Gales Ferry, CT, USA). The undiluted plasma and respective homogenates were spiked with individual peptide to a concentration of 1 µM and were dialyzed against PBS (pH 7.4). Five technical replicates were prepared per biological replicate. The experiment was run for 6 h at 37 °C in a MaxQ4450 shaker (Thermo Fisher Scientific, NinoLab, Sweden) at 200 rpm. […] Aliquots (80 µL) were taken from the buffer and plasma/homogenate sides. To compensate for any differences in matrix during bioanalysis, the plasma and homogenate samples were mixed with equal volumes of blank buffer, and the buffer samples were mixed with an equal volume of relevant blank plasma/homogenate. Spiked plasma and respective homogenate samples were incubated to control for relative recovery and thermal stability of the peptides in respective matrices.
The unbound fraction in undiluted plasma was calculated using Equation (5), where Cbuffer is the unbound concentration of peptide in the buffer and Cplasma is the total concentration of peptide in plasma at 6 h. The binding of peptide in various homogenates was assessed in two steps. First, the fraction of unbound peptide in the diluted homogenate, fu,h,D, was calculated using Equation (6), where Chomogenate is the total concentration of peptide in respective homogenate at 6 h. Second, the correction for the dilution was implemented as described in Equation (7), where D is the dilution factor used in the preparation [47]. D was 5 for brain and lung homogenates and on average 35.3 for the cell culture studies, as determined based on the total protein content and the total volume of lysate. (5) fu,plasma=Cbuffer/Cplasma (6) fu,h,D=Cbuffer/Chomogenate (7) fu,tissue/cell=1/D/((1/fu,h,D )−1)+1/D

[2] = rat brain slices, 200 nM, 5 h, 37 °C
[3] = Unbound intracellular-to-extracellular (interstitial) concentration ratio, brain slices 37 °C, fu,brain × Vu,brain
[4] = brain tissue homogenate, equilibrium dialysis

Question: Which results are given for `CC(C)C[C@@H]1NC(=O)CNC(=O)[C@H](CC(N)=O)NC(=O)[C@H](CCCNC(=N)N)NC(=O)[C@H]([C@@H](C)O)NC(=O)[C@@H]2CSSC[C@@H]3NC(=O)[C@H]([C@@H](C)O)NC(=O)CNC(=O)CNC(=O)[C@H](C(C)C)NC(=O)[C@@H]4CSSC[C@H](NC(=O)[C@H]([C@@H](C)O)NC(=O)[C@H](CSSC[C@H](NC(=O)[C@H](C(C)C)NC(=O)[C@@H]5CCCN5C1=O)C(=O)NCC(=O)N[C@@H](CCC(=O)O)C(=O)N[C@@H]([C@@H](C)O)C(=O)N4)NC(=O)CNC(=O)[C@@H]1CCCN1C(=O)[C@H]([C@@H](C)O)NC(=O)[C@H](CC(N)=O)NC3=O)C(=O)N[C@@H](CO)C(=O)N[C@@H](Cc1c[nH]c3ccccc13)C(=O)N1CCC[C@H]1C(=O)N[C@@H](C(C)C)C(=O)N2` [Kalata B1]?
Answer: Reduction in Kp,uu,cell from 37 °C to 4 °C (brain slices; brain slices): 138 fold; Intra-brain distribution (Vu,brain) relative to SFTI-1 (brain slices; brain slices 37 °C): ca. 350 fold; Unbound intracellular-to-extracellular (interstitial) concentration ratio, Kp,uu,cell (brain slices; brain slices 37 °C, fu,brain × Vu,brain): 9.73 ± 3.35; Unbound volume of distribution in brain, Vu,brain (brain slices; brain slices incubated at 4 °C): 1.12 mL/g brain; Reduction in Vu,brain after pre-incubation with dynasore (brain slices; brain slices, dynasore 50 µM, 30 min pre-incubation): 23%; Unbound volume of distribution in brain, Vu,brain (brain slices; [2]): 152 ± 29.9 mL/g brain; Unbound volume of distribution in brain, Vu,brain (brain slices; rat brain slices, 200 nM, 5 h, 37 °C, listed as kalata B1): 152 mL/g brain; Kp uu ([1]; brain slices incubated at 4 °C): 0.0721; Kp uu [1, 3]: 9.7; Half-life, t½ (in vivo; plasma): 35.8 ± 3.52 min; AUC(0-inf) (in vivo; in vivo): 2800 ng·h/mL; Vd (in vivo; in vivo): 0.322 ± 0.0887 L/kg; clearance (in vivo; in vivo): 1.6 ± 0.396 mL/min/kg; half-life (in vivo; in vivo, plasma): 35 min; Fraction unbound in plasma, fu,plasma (plasma proteins): 0.299 ± 0.095; Bound to brain tissue constituents (in vitro; [4]): 93%; fraction unbound (in vitro; rat, brain homogenate): 0.0639 ± 0.0072

Question: Which results are given for `CC[C@H](C)[C@@H]1NC(=O)[C@@H]2CCCN2C(=O)[C@@H]2CCCN2C(=O)[C@H]([C@@H](C)CC)NC(=O)[C@H](CO)NC(=O)[C@H](CCCCN)NC(=O)[C@H]([C@@H](C)O)NC(=O)[C@@H]2CSSC[C@H](NC1=O)C(=O)N[C@@H](Cc1ccccc1)C(=O)N1CCC[C@H]1C(=O)N[C@@H](CC(=O)O)C(=O)NCC(=O)N[C@@H](CCCNC(=N)N)C(=O)N2` [SFTI-1, sunflower trypsin inhibitor-1]?
Answer: Unbound volume of distribution in brain, Vu,brain (brain slices; brain slices incubated at 4 °C): 0.56 mL/g brain; Unbound volume of distribution in brain, Vu,brain (brain slices; [2]): 0.436 mL/g brain and 0.436 ± 0.064 mL/g brain; Kp uu ([1]; mean values across experimental conditions, brain slices, 4 °C, inhibition of endocytosis, or dissipation of the pH gradient): 0.3 to 0.47; Kp uu [1, 3]: 0.415 ± 0.079; Total plasma concentration post 120 min time point (below the quantification limit) (in vivo; 10 min infusion 0.5 mg/kg): < 5 ng/mL; Half-life, t½ (in vivo; plasma): 20.3 ± 3.50 min; AUC(0-inf) (in vivo; plasma): 1290 ng·h/mL; Vd (in vivo; plasma): 0.191 ± 0.0344 L/kg; clearance (in vivo; plasma): 1.82 ± 0.48 mL/min/kg; half-life (in vivo; plasma): 20 min; Fraction unbound in plasma, fu,plasma (plasma proteins): 0.936 ± 0.038; Brain tissue binding (in words) (in vitro; [4]): almost no brain tissue-binding capacity; fraction unbound at 6 h, 1 µM (in vitro; rat, brain homogenate (1 part brain with 4 parts PBS), pH 7.4): 0.951 ± 0.115
